Consider 6 compounds from patent US10493057B2, “Acetogenin molecules having antiplatelet and/or antithrombic activities, and methods and compositions thereof” (INSTITUTO TECNOLOGICO Y DE ESTUDIOS SUPERIORES DE MONTERREY, priority 2015, dated 2019).

For assay [1], the system named is platelets (human platelet-rich plasma). As to the kind of experiment: Platelet aggregation assay (turbidimetric, platelet-rich plasma) induced by collagen, ADP or arachidonic acid. It is filed as cell-based. The source says:
Antiplatelet activity may be assessed using one or more in vitro (e.g., platelet aggregation) and/or in vivo (e.g., blood clotting time) assays. Antiplatelet activity may be assessed, for example, using a light transmittance aggregometry test based on the stimulation of platelet-platelet aggregation in platelet-rich plasma after stimulation with various agonists (e.g., ADP, α Arachidonic acid, collagen etc). This test has been the most widely used technique to monitor the effects of antiplatelet agents. Agonists and their concentration may be used to produce full aggregation. Under this condition, acetogenins may inhibit aggregation induced by any agonist; their half maximal inhibitory concentration (IC50) value may vary by the agonist used. Percent aggregation inhibition values may be calculated using the following equation: % Inhibition=(Maximal aggregation vehicle control−Maximal aggregation acetogenins)/Maximal aggregation vehicle control×100%. Under a dose-dependent antiplatelet activity, IC50 may represent the concentration of acetogenins required for 50% inhibition of stimulation of platelet aggregation. […]
To confirm the contribution of the isolated acetogenin compounds to antiplatelet activity, their individual activity was evaluated at different concentrations (0.15-15 mM). Aggregation was induced by different agonists that included collagen (5 μg mL−1), ADP (20 μM) and arachidonic acid (500 μM) in an approximation to explore the potential interference of acetogenins with the binding of a particular agonist to its cell surface receptor.
The platelet aggregation (induced by ADP, collagen and arachidonic acid) inhibitory activity of the purified molecules was evaluated was conducted in accordance with the Helsinki Declaration using human blood donated to the blood bank of Instituto Nacional de Cardiología Ignacio Chávez. Blood samples were taken from healthy volunteers who had not taken any medications for at least 2 weeks, or ingested any alcohol for at least 24 h prior to sample collection. Blood was collected by venipuncture into Vacutainer (BD Diagnostics, Plymouth, UK) tubes containing 3.8% sodium citrate as an anticoagulant (at a 9:1 ratio, v/v). Platelet-rich plasma (PRP) and platelet-poor plasma (PPP) were obtained as earlier reported by A. De la Peña, G. Baños, R. Izaguirre, J. J. Mandoki and J. M. Fernández, Comparative effect of synthetic aminoestrogens with estradiol on platelet aggregation, Steroids, 1993, 58(9), 407-409. The assays were carried out within 2 h after the blood had been drawn.
Evaluation of platelet aggregation was performed by turbidimetric measurements according to S. S. Falkenberg, I. Tarnow, A. Guzman, P. Molgaard and H. T. Simonsen, Mapuche herbal medicine inhibits blood platelet aggregation, Evid. Based Complement. Alternat. Med., 2012, 2012, 647620, with some modifications. PRP adjusted with PPP to a platelet count of 2.5×108 mL^−1 (215 μL) was pre-incubated at 37° C. for 10 min with the evaluated sample (10 μL) and at various concentrations.
Platelet aggregation was initiated by the addition of 25 μL of the platelet agonist. The final concentrations of agonists in the reaction mixture were 20 μM ADP, 500 μM arachidonic acid or 5 μg mL^−1 collagen, all obtained from Chrono-PAR. Corporation (Havertown, Pa., USA). Aggregation response was recorded for 10 min using a Chrono-log Model 700 Whole Blood/Optical Lumi-Aggregometer (Chrono-Log, Havertown, Pa., USA). Maximal aggregation (MA) observed for samples containing avocado extracts, at different degrees of purification, was compared to those of vehicle controls (DMSO 2 M) evaluated under the same experimental conditions. Percent aggregation inhibitions, for all samples, were calculated using the following equation: % Inhibition=(MA vehicle control−MA extract)/MA vehicle control×100%. […]

For assay [2], the system named is Male adult CD1 mice. As to the kind of experiment: Experimental thrombosis model test (surgical stasis of femoral vasculature). Type of assay: in vivo. The conditions noted are these: 25 mg kg−1 single i.p.; thrombosis induced after 24 h. The source says:
Antithrombic activity may be assessed using one or more in vivo (e.g., experimental thrombosis model) assays. For example, after thrombus induction, femoral segments may be removed, fixed, and stained. These segments may be then scored by a pathologist in a double blind manner. Quantitative measurement may be obtained by computerized plannimetry, reaching a quantitative morphological description of structures at the two-dimensional level. Image analysis may be performed using ImageJ software. Minimal occlusion (0.2%) may be observed in controls arteries and test specimens may display thrombus occlusion 40% of the vascular light.
All in vivo experiments were conducted in accordance with the Mexican National Protection Laws on Animal Protection and the General Health Law Related to Health Research (NOM-062-Z00-1999). All procedures were approved by an ethics committee. Male adult CD1 mice weighing 25-35 g were used (obtained from the Animal Care Unit from Facultad de Medicina, UNAM). […]
Additionally, an experimental thrombosis model test was performed by subjecting mice to an acute ischemic challenge. […] 4 μm thick sections were stained with Masson's trichrome and hematoxylin-eosin, and scored by a pathologist for the percentage of thrombus induction based on the occlusion of vascular light.

The test system of assay [3] is Male adult CD1 mice. Put plainly: Blood clotting time test in mice. It is filed as in vivo. The protocol:
All in vivo experiments were conducted in accordance with the Mexican National Protection Laws on Animal Protection and the General Health Law Related to Health Research (NOM-062-Z00-1999). All procedures were approved by an ethics committee. Male adult CD1 mice weighing 25-35 g were used (obtained from the Animal Care Unit from Facultad de Medicina, UNAM).
Animals were distributed among groups according to a balanced design based on body weight (3 animals per group in each experiment). Room temperature was kept constant (21-24° C.), and with light-dark cycles of 12 h. Food and water were given ad libitum. Persenone-A was dissolved in DMSO (vehicle) and administered intraperitoneally (i.p.). Control animals only received the vehicle (1.66 mL kg−1).
In a blood clotting time test groups of animals received a single i.p. administration of Persenone A (1, 10 or 100 mg kg^−1 of body weight, respectively) or vehicle. Blood clotting time was measured 24 h after administration, as described in R. Jaimez, A. Cooney, K. Jackson, A. E. Lemus, C. […] Time was counted from the instant that blood first made contact with the glass capillary tube and until the blood ceased to flow. […]
The data shown in FIG. 4 is representative of at least three independent experiments. Results were expressed as means±SEM. […]

[4] abbreviates: Homo sapiens, Platelet, ADP 20 μM, read-out: Half-maximal inhibition concentration (IC50), ADP-induced platelet aggregation.
[5] abbreviates: Homo sapiens, Platelet, Arachidonic acid 500 μM, read-out: Half-maximal inhibition concentration (IC50), arachidonic acid-induced platelet aggregation.
[6] abbreviates: Homo sapiens, Platelet, Collagen 5 μg mL−1, read-out: Half-maximal inhibition concentration (IC50), collagen-induced platelet aggregation.

SMILES strings stand for the structures. Like-named read-outs stand apart in the source and are kept apart here.

On to `CCCCC/C=C\C/C=C\CCCCCCCC(=O)CC(O)COC(C)=O` (stereo not shown) [Acetogenin 6, Persin], for which the IC50 in assay [1] (setting [4]), in assay [1] (setting [5]) and in assay [1] (setting [6]) was over 15 mM each time. Also, in assay [1] (any of the evaluated concentrations (0.15-15 mM)), the “inhibition of platelet aggregation (in words)” value is “did not inhibit platelet aggregation”.

As for `CC(=O)Oc1ccccc1C(=O)O` [Aspirin, acetylysalicylic acid, reference compound], the IC50 in assay [1] (setting [4]) turned out to be 3.65 ± 0.07 mM; in assay [1] (setting [5]) it was 0.07 ± 0.01 mM; in assay [1] (setting [6]), 0.38 ± 0.07 mM; in assay [1] (Homo sapiens, Platelet, arachidonic acid-induced, read-out: IC50, arachidonic acid-induced platelet aggregation (as printed in text)) it was 0.07 ± 0.01 mM. Further, in assay [1] (arachidonic acid vs ADP), the “IC50 for arachidonic acid-induced aggregation, fold lower than for ADP-induced aggregation” value was 50 fold.

Take `CCCCC/C=C\C/C=C\CCCCC/C=C/C(=O)CC(O)COC(C)=O` (stereo not shown) [Acetogenin 4, Persenone-A]: the “decrease in luminal occlusion compared to the stasis group” value in assay [2] is 71%. In addition, the IC50 is 13.5 ± 1.41 mM in assay [1] (setting [4]), over 15 mM in assay [1] (setting [5]) and 8.73 ± 1.25 mM in assay [1] (setting [6]). The inhibition at 15000 µM in assay [1] (Homo sapiens, Platelet, 15 mM, arachidonic acid, read-out: inhibition of arachidonic acid-induced platelet aggregation at the highest concentration) was under 50%. The “increase in blood clotting time” value in assay [3] (100 mg kg−1 single i.p., measured 24 h after administration, relative to vehicle) came out at 2 fold. For the same compound, the “EC50 of blood clotting time” value in assay [3] (single i.p., 24 h after administration) is 24.8±1.7 mg kg^−1 of body weight.

`CC/C=C/CCCCCCCCC/C=C/C(=O)CC(O)COC(C)=O` (stereo not shown) [Acetogenin 3, Persenone-C]: the IC50 in assay [1] (Collagen 5 μg mL−1, read-out: Half-maximal inhibition concentration (IC50), collagen-induced platelet aggregation) was 5.23 ± 1.19 mM; in assay [1] (setting [4]), 5.22 ± 1.19 mM; in assay [1] (setting [5]), 7.4 ± 1.2 mM; in assay [1] (setting [6]), 3.42 ± 1.56 mM.

Turning to `C=C/C=C/CCCCCCCCCCCC(=O)CC(O)COC(C)=O` (stereo not shown) [Acetogenin 2, Persediene], the values for the IC50 in assay [1] (setting [4]), in assay [1] (setting [5]) and in assay [1] (setting [6]) were over 15 mM, over 15 mM and 12 ± 1.24 mM, respectively. Moreover, in assay [1] (collagen-induced), the “inhibition of collagen-induced aggregation (in words)” value is recorded as “inhibited collagen-induced aggregation”.

For the compound `C=CCCCCCCCCCCC[C@H](O)C[C@H](O)COC(C)=O` [Acetogenin 1, (2S,4S)-1-acetoxy-2,4-dihydroxy-n-heptadeca-16-ene], the IC50 in assay [1] (setting [4]) worked out at 7.29 ± 1.21 mM; in assay [1] (setting [5]) it was 13.4 ± 1.26 mM; in assay [1] (setting [6]), 8.18 mM. Further, the “inhibitory concentration, fold higher than Persenone-C” value in assay [1] (all three agonists (collagen, ADP, arachidonic acid)) is given as over 1.5 fold.
